Results taken from patent US8669251B2, “8-fluorophthalazin-1(2H)-one compounds” (Genentech, Inc., priority 2011, dated 2014).

system: production of CD69 by B lymphocytes in human whole blood; assay: CD69 Whole Blood Assay (CD69 Hu Blood FACS); type: cell-based; conditions: human whole blood activated with goat F(ab')2 anti-human IgM, 20 hours; CD69 on CD20 positive cells by FACS; Table 1
Source text: A CD69 Whole Blood Assay can be conducted on Formula I compounds to determine the ability of compounds to inhibit the production of CD69 by B lymphocytes in human whole blood activated by crosslinking surface IgM with goat F(ab′)2 anti-human IgM (Example 907). CD69 is a type II C-type lectin involved in lymphocyte migration and cytokine secretion. CD69 expression represents one of the earliest available indicators of leukocyte activation and its rapid induction occurs through transcriptional activation (Vazquez et al (2009) Jour. of Immunology Published Oct. 19, 2009, doi:10.4049/jimmunol.0900839). Concentration-dependent inhibition of antigen receptor stimulation by selective Btk inhibitors induces cell surface expression of the lymphocyte activation marker CD69 (Honigberg et al (2010) Proc. Natl. Acad. Sci. 107(29):13075-13080). Thus, CD69 inhibition by selective Btk inhibitors may be correlated with therapeutic efficacy of certain B-cell disorders.
Human blood is obtained from healthy volunteers, with the following restrictions: 1 week drug-free, non-smokers. Blood (approximately 20 mls to test 8 compounds) is collected by venipuncture into Vacutainer® (Becton, Dickinson and Co.) tubes with sodium heparin.
Solutions of Formula I and II compounds at 10 mM in DMSO are diluted 1:10 in 100% DMSO, then are diluted by three-fold serial dilutions in 100% DMSO for a ten point dose-response curve. The compounds are further diluted 1:10 in PBS and then an aliquot of 5.5 μl of each compound is added in duplicate to a 2 ml 96-well plate; 5.5 μl of 10% DMSO in PBS is added as control and no-stimulus wells. Human whole blood —HWB (100 μl) is added to each well. After mixing the plates are incubated at 37° C., 5% CO2, 100% humidity for 30 minutes. Goat F(ab′)2 anti-human IgM (10 μl of a 500 μg/ml solution, 50 μg/ml final) is added to each well (except the no-stimulus wells) with mixing and the plates are incubated for an additional 20 hours. At the end of the 20 hour incubation, samples are incubated with fluorescent labeled antibodies for 30 minutes, at 37° C., 5% CO2, 100% humidity. Include induced control, unstained and single stains for compensation adjustments and initial voltage settings. Samples are then lysed with PharM Lyse™ (BD Biosciences Pharmingen) according to the manufacturer's instructions. Samples are then transferred to a 96 well plate suitable to be run on the BD Biosciences HTS 96 well system on the LSRII machine. Data acquired and Mean Fluorescence Intensity values were obtained using BD Biosciences DIVA Software. Results are initially analyzed by FACS analysis software (Flow Jo). […] The inhibitory concentration (IC50, IC70, IC90) values are calculated by Prism version 5, using a nonlinear regression curve fit.

SMILES	CD69 Hu Blood FACS (IC70) [nM]
C[C@H]1CN(C2COC2)CCN1c1ccc(Nc2cc(-c3cncc(-n4ncc5cc(C(C)(C)C)cc(F)c5c4=O)c3CO)cn(C)c2=O)nc1 [Compound 109, (S)-6-tert-butyl-8-fluoro-2-(4-(hydroxymethyl)-5-(1-methyl-5-(5-(2-methyl-4-(oxetan-3-yl)piperazin-1-yl)pyridin-2-ylamino)-6-oxo-1,6-dihydropyridin-3-yl)pyridin-3-yl)phthalazin-1(2H)-one]	12
C[C@@H]1CN(c2ccc(Nc3cc(-c4ccnc(-n5ncc6cc(C(C)(C)C)cc(F)c6c5=O)c4CO)cn(C)c3=O)nc2)[C@@H](C)CN1C1COC1 [Compound 110, 6-tert-butyl-2-(4-(5-(5-((2S,5R)-2,5-dimethyl-4-(oxetan-3-yl)piperazin-1-yl)pyridin-2-ylamino)-1-methyl-6-oxo-1,6-dihydropyridin-3-yl)-3-(hydroxymethyl)pyridin-2-yl)-8-fluorophthalazin-1(2H)-one]	5.9

same assay, conditions: human whole blood activated with goat F(ab')2 anti-human IgM, 20 hours; CD69 on CD20 positive cells by FACS; Table 2

SMILES	CD69 Hu Blood FACS (IC70) [nM]
Cn1cc(-c2ccnc(-n3ncc4cc(C(C)(C)C)cc(F)c4c3=O)c2CO)cc(Nc2ccc(N3CC(O)C3)cn2)c1=O [Compound 147, 6-tert-butyl-8-fluoro-2-[4-[5-[[5-(3-hydroxyazetidin-1-yl)-2-pyridyl]amino]-1-methyl-6-oxo-3-pyridyl]-3-(hydroxymethyl)-2-pyridyl]phthalazin-1-one]	33.3
CC(C)N1Cc2cc(Nc3cc(-c4ccnc(-n5ncc6cc(C(C)(C)C)cc(F)c6c5=O)c4CO)cn(C)c3=O)nn2CC1=O [Compound 151, 6-tert-butyl-8-fluoro-2-[3-(hydroxymethyl)-4-[5-[(5-isopropyl-6-oxo-4,7-dihydropyrazolo[1,5-a]pyrazin-2-yl)amino]-1-methyl-6-oxo-3-pyridyl]-2-pyridyl]phthalazin-1-one]	14.1
C[C@H]1CN(C2COC2)CCN1c1ccc(Nc2cc(-c3ccnc(-n4ncc5cc(C(C)(C)C)cc(F)c5c4=O)c3CO)c[nH]c2=O)nc1 [Compound 138, 6-tert-butyl-8-fluoro-2-[3-(hydroxymethyl)-4-[5-[[5-[(2S)-2-methyl-4-(oxetan-3-yl)piperazin-1-yl]-2-pyridyl]amino]-6-oxo-1H-pyridin-3-yl]-2-pyridyl]phthalazin-1-one]	12.4
Cc1cc(Nc2cc(-c3ccnc(-n4ncc5cc(C(C)(C)C)cc(F)c5c4=O)c3CO)nn(C)c2=O)no1 [Compound 141, 6-tert-butyl-8-fluoro-2-[3-(hydroxymethyl)-4-[1-methyl-5-[(5-methylisoxazol-3-yl)amino]-6-oxo-pyridazin-3-yl]-2-pyridyl]phthalazin-1-one]	295
Cc1cc(Nc2cc(-c3ccnc(-n4ncc5cc(C(C)(C)C)cc(F)c5c4=O)c3CO)cn(C)c2=O)ns1 [Compound 157, 6-tert-butyl-8-fluoro-2-[3-(hydroxymethyl)-4-[1-methyl-5-[(5-methylisothiazol-3-yl)amino]-6-oxo-3-pyridyl]-2-pyridyl]phthalazin-1-one]	157
Cn1nc(Nc2cc(-c3ccnc(-n4ncc5cc(C(C)(C)C)cc(F)c5c4=O)c3CO)cn(C)c2=O)cc1C1CC1 [Compound 126, 6-tert-butyl-2-[4-[5-[(5-cyclopropyl-1-methyl-pyrazol-3-yl)amino]-1-methyl-6-oxo-3-pyridyl]-3-(hydroxymethyl)-2-pyridyl]-8-fluoro-phthalazin-1-one]	44.5
Cc1cc(Nc2cc(-c3ccnc(-n4ncc5cc(C(C)(C)C)cc(F)c5c4=O)c3CO)cn(C)c2=O)no1 [Compound 129, 6-tert-butyl-8-fluoro-2-[3-(hydroxymethyl)-4-[1-methyl-5-[(5-methylisoxazol-3-yl)amino]-6-oxo-3-pyridyl]-2-pyridyl]phthalazin-1-one]	48.8
